Measurements: US7501281B2, “Compositions, methods and kits related to thrombin, Notch signaling and stamatogenesis and growth of stem cells” (Maine Medical Center Research Institute, priority 2003, dated 2009)
Marks after values point to notes of the source that are not given here.

Assays:
[1] = test system: Notch-dependent CSL1 activity in full-length Jagged1 NIH 3T3 cell transfectants; assay: Dual Luciferase Reporter Assay of CSL1-dependent transcription; assay type: cell-based, murine
[2] = test system: HEY and Deltex transcripts in NCSC populations; assay: RT-PCR analyses of Notch down-stream effectors; assay type: cell-based
Excerpt: It is also interesting that sJ1 and sDl1 induce distinctive phenotypic outcomes. Whereas sJ1:Notch interactions enable stamatogenesis, sDl1:Notch associations lead to an immediate loss of neurogenic potential. […] Likewise, Delta1, but not Jagged1, is able to promote the in vitro development of human cord blood-derived progenitor cells with a T cell/natural killer cell phenotype (Jaleco et al., 2001, J. Exp. Med. 194:991-1002), and sJ1 is able to promote the clonal expansion of hematopoietic stem cells in vitro (Vas et al., 2004, J. Leukoc. Biol., in press). […] Thus, it appears that sJ1 and sDl1 induce different cell fate decisions in NCSC populations. […] Thus, without wishing to be bound by any particular theory, the levels of Notch signaling may be paramount in regulating the undifferentiated expansion of multipotential neural stem cells, and thrombin and/or sJ1, may be one of the key elements in this process that enable stamatogenesis to occur.

NCSC populations = assay: GFAP immunoreactivity as onset of glial-specific clonogenic differentiation; assay type: cell-based, murine
Method: FIG. 12A depicts an RT-PCR analysis of FGF1.A mRNA expression. Briefly, populations of murine NCSC were treated for 48 hours in Morrison media supplemented with either 7.5 nM sJ1, 5.0 nM sDl1, 10 μg/ml of α-thrombin or 5 μg/ml TRAP, and the steady-state levels of the FGF1.A mRNA were measured using RT-PCR as described elsewhere herein. […] Clonogenic differentiation assays of murine NCSC populations were assessed by maintaining the cells in Morrison media supplemented with increasing concentrations of either sJ1 or sDl1. […] Clonogenic differentiation assays of NCSC populations was assessed by maintaining the cells in Morrison media supplemented with either 7.5 nM sJ1 (▪-▪) or 5 nM sDl1 (▴-▴). The onset of gliogenic differentiation was determined by GFAP immunohistochemistry. […]
Since sJ1 enabled the retention of NCSC neurogenic potential over a 7 day period of exposure (Table 1), glial fibrillary acidic protein (GFAP) immunoreactivity was utilized as a measure of the onset of glial-specific clonogenic differentiation (Morrison et al., 1999, Cell 96:737-749; Stemple et al., 1992, Cell 71:973-985). […] As previously reported (Morrison et al., 2000, Cell 101:499-510), after 48 hours of exposure to sDl1, GFAP immunoreactive cells were detected in NCSC populations (FIG. 12C). […]

mouse NSCS populations = assay: Clonogenic differentiation assay of NCSC, pre-incubation with Notch ligand then BMP2 challenge; assay type: cell-based
Method: Clonogenic assays were performed as described (Stemple et al., 1992, Cell 71:973-985). Briefly, populations of murine NCSC were plated at a clonal density and maintained for a maximum of 14 days in Morrison media supplemented with 15% chick embryo extract (Morrison et al., 1999, Cell 96:737-749). The resulting clones were fixed in an acetic acid:ethanol solution (2:1) and stained with antibodies against peripherin (Chemicon) to detect neurons, smooth muscle actin (Sigma) to detect myofibroblasts, and GFAP (Chemicon) to detect Schwann cells. Clones were scored based on the appearance of just one phenotypic representative. The number and percentage of clones containing neurons only (N), Schwann cells only (S), myofibroblasts only (M), N+S, N+M, N+S+M, and S+M were scored at day 14 unless otherwise stated. The production of each representative phenotype in each individual clone was also scored to complement the clonal population assay.
NCSC Retain Neurogenic capacity in the presence of sJ1. A clonogenic differentiation assay was performed using mouse NSCS populations as described previously (Kubu et al., 2002, Dev. Biol. 244:199-214; Stemple et al., 1992, Cell 71:973-985). The cells were incubated in Stemple media (Stemple et al., 1992) with or without 5 nM sDl1 or 7.5 nM sJ I for the time periods set forth in Table 1. After the initial incubation period, cells were washed and neuronal differentiation was challenged in the presence of 1 ng/ml BMP2 for an additional seven days. The resulting clones were fixed and stained for detection of neural crest markers. The data disclosed in Table 1 is presented as the percentage of glial-only, neuron-only, and neuron colonies containing either smooth muscle or glial markers as the mean±standard deviation (SD) of three experiments originating from three independent cell isolations. Note the retention of neurogenic differentiation capacity in sJ1-treated cells (*=p<0.01) compared with the sDl1-treated cells.

[3] = 24 hrs with 5 nM sDl1 or 7.5 nM sJ1, then 1 ng/ml BMP2 for seven days, percentage of colonies, mean±SD
[4] = 72 hrs with 7.5 nM sJ1, then 1 ng/ml BMP2 for seven days
[5] = 120 hrs with 7.5 nM sJ1, then 1 ng/ml BMP2 for seven days
[6] = 168 hrs with 7.5 nM sJ1, then 1 ng/ml BMP2 for seven days

Molecule | effect on Notch-dependent CSL1 activity [1] | CSL1-dependent transcription, of the control level ([1]; maximal attenuation by thrombin) | steady-state levels of HEY and Deltex transcripts [2] | percentage of the colony expressing the glial-specific protein GFAP (NCSC populations; day 7) [%] | CSL1-dependent transcription, of the control level ([1]; sJ1 expression (sJ1 NIH 3T3 cell transfectants)) | Glial-Only (mouse NSCS populations; [3]) [%] | Neuron-Containing (mouse NSCS populations; [3]) | Neuron-Only (mouse NSCS populations; [3]) | Glial-Only (mouse NSCS populations; [4]) [%*] | Neuron-Containing (mouse NSCS populations; [4]) [%*] | Neuron-Only (mouse NSCS populations; [4]) [%*] | Glial-Only (mouse NSCS populations; [5]) [%*] | Neuron-Containing (mouse NSCS populations; [5]) [%*] | Neuron-Only (mouse NSCS populations; [5]) [%*] | Glial-Only (mouse NSCS populations; [6]) [%*] | Neuron-Containing (mouse NSCS populations; [6]) [%] | Neuron-Only (mouse NSCS populations; [6]) [%*] | time of exposure at which GFAP immunoreactive cells were detected (NCSC populations) [h]
Thrombin | reduce the level of Notch-dependent CSL1 activity in a dose-dependent manner | approximately 75% | – | – | – | – | – | – | – | – | – | – | – | – | – | – | – | –
sJ1: Soluble Jagged1, amino acid residues from about 1 to 1067 (SEQ ID NO:3) of full-length Jagged1 | – | – | suppression | 23±5 | approximately 25% | 0 | 71.4 ± 6.2%* | 54.4 ± 8.4%* | 0.8 ± 1.4 | 74.8 ± 16.3 | 42.8 ± 6.6 | 5.82 ± 3.4 | 52.01 ± 14.1 | 13.43 ± 6.5 | 13.3 ± 4.5 | 35.03 ± 9.1 | 6.5 ± 1.3 | –
sDl1: soluble non-transmembrane form of the Notch ligand Delta1 (protein, left off: small tags and cut ends, soluble non-transmembrane form of the Notch ligand Delta1) QVWSSGVFELKLQEFVNKKGLLGNRNCCRGGAGPPPCACRTFFRVCLKHYQASVSPEPPCTYGSAVTPVLGVDSFSLPDGGGADSAFSNPIRFPFGFTWPGTFSLIIEALHTDSPDDLATENPERLISRLATQRHLTVGEEWSQDLHSSGRTDLKYSYRFVCDEHYYGEGCSVFCRPRDDAFGHFTCGERGEKVCNPGWKGPYCTEPICLPGCDEQHGFCDKPGECKCRVGWQGRYCDECIRYPGCLHGTCQQPWQCNCQEGWGGLFCNQDLNYCTHHKPCKNGATCTNTGQGSYTCSCRPGYTGATCELGIDECDPSPCKNGGSCTDLENSYSCTCPPGFYGKICELSAMTCADGPCFNGGRCSDSPDGGYSCRCPVGYSGFNCEKKIDYCSSSPCSNGAKCVDLGDAYLCRCQAGFSGRHCDDNVDDCASSPCANGGTCRDGVNDFSCTCPPGYTGRNCSAPVSRCEHAPCHNGATCHERGHRYVCECARGYGGPNCQFLLPELPPGPAVVDLTEKLEGQGGPFPW | – | – | not | – | – | 57.8 ± 9.9 | 7.0 ± 5.7% | 0% | – | – | – | – | – | – | – | – | – | 48
